Measured values taken from patent US20100166727A1, “S-Adenosylmethionine And Methylthioadensosine In Chemoprevention And Treatment Of Colon Polyps And Cancer” (UNIVERSITY OF SOUTHERN CALIFORNIA, priority 2007, published 2010).

Tests used:
human MAT2A promoter = experiment: Luciferase activity driven by the human MAT2A promoter in HT-29 cells; format: cell-based; details: SAMe 5 mM or MTA 1 mM, 6 hrs
Method: The human MAT2A promoter construct[…] and GSS promoter construct −1686/−46-LUC were previously described (33, 34, 50), and subcloned in the sense orientation upstream of the luciferase coding sequence of the pGL-3 enhancer vector (Promega). Both promoter constructs contain maximal promoter activity.
To study the effect of mitogens on human MAT2A promoter activity in HT-29 cells, HT-29 cells (5×10^5 cells in 2 ml serum-free medium) were transiently transfected with 2 μg MAT2A promoter firefly luciferase gene construct or promoterless pGL3-enhancer vector (as negative control) using the Superfect Transfection Reagent (Qiagen, Valencia, Calif.) (34). To control for transfection efficiency, cells were co-transfected with the Renilla phRL-TK vector (Promega, Madison, Wis.). […] The luciferase activity driven by the MAT2A promoter construct was normalized to Renilla luciferase activity. Each experiment was done with triplicate samples.

RKO cells = experiment: Apoptosis in RKO cells (HOECHST staining, Annexin V); format: cell-based, human; details: by 24 hrs, RKO cells
Method: Apoptosis was assessed by HOECHST staining (34). Briefly, RKO cells were grown on coverslips and treated with RNAi#1 for 24 hrs and cells were fixed with paraformaldehyde and stained with 8 μg/ml HOECHST 33258 dye for 30 min. Cells with bright, fragmented, condensed nuclei were identified as apoptotic cells using the Nikon Eclipse TE300 fluorescent microscope. At least 5 random fields (at ×300) were counted.
In these experiments the total treatment duration was limited to 16 hrs to avoid the apoptotic effect. […] Apoptosis was measured by Hoechst staining or Annexin V and propidium iodide staining on flow cytometry.

SPD syn = SPD syn expression by real-time PCR in HT-29 cells; format: cell-based, human; details: 6 hrs
[1] = test system: spermine synthase (SPM syn); experiment: SPM syn expression by real-time PCR in HT-29 cells; format: cell-based, human; details: 6 hrs
c-FLIP [2] = experiment: c-FLIP mRNA level by real-time PCR in HT-29 cells; format: cell-based, human; details: SAMe 2 mM, MTA 1 mM, 6 hrs, mean±SE
c-FLIP [3] = experiment: c-FLIP expression and caspase 8 activation in RKO cells; format: cell-based, human; details: 6 hrs, with concomitant caspase 8 activation
Method: FIG. 27. […] RKO cells were treated with SAMe (0.25-5 mM) or MTA (0.25-2 mM) for 6 hrs and c-FLIP isoform mRNA levels were measured using real-time PCR (A) and protein levels of c-FLIP and caspase 8 by Western blots (B).

Bcl-xL = Bcl-xL mRNA level in HT-29 cells; format: cell-based, human; details: SAMe 2 mM, 6 hrs
Method: (§1) SAMe and MTA induce apoptosis in liver cancer cells by the mitochondrial pathway (14). […] In liver cancer cells, SAMe and MTA induced selectively expression of Bcl-xs, a pro-apoptotic protein (67). We examined whether the same occurs in HT-29 cells. After 6 hrs of MTA (1 mM) treatment, Bcl-xL mRNA level fell by 53% (47±4% of control, results are mean±SE from 4 experiments, p<0.0005). […] This makes these agents particularly attractive in targeting colon cancer cells.

Bcl-xS = Bcl-xS mRNA level in HT-29 cells; format: cell-based, human; details: 6 hrs
Method: as §1

[4] = Intestinal SAMe levels in mice given SAMe or MTA in drinking water; details: mouse, in vivo
Method: (§2) Three-month old male C57/B6 mice were fed ad libitum a standard diet (Harland Tekiad irradiated mouse diet 7912, Madison, Wis.), caged individually and had free access to water supplemented with SAMe ([…]), MTA (75 mg/kg/d), phosphate buffered saline (vehicle for SAMe) or DMSO (0.2%, vehicle for MTA) for 6 days. SAMe and MTA were made fresh daily. The amount of water intake, body weight, and animal behavior were closely monitored. After 6 days, animals were sacrificed, intestine was cut open along the longitudinal axis, and mucosa was stripped from the intestine (46). Mucosa was weighed and a portion processed for SAMe measurement as described below, the rest snap frozen for subsequent RNA extraction.
Cellular SAMe and MTA levels were measured (51) and polyamine levels were determined (52).

MAT2A = experiment: Intestinal MAT2A expression in mice given SAMe or MTA in drinking water; format: in vivo
Method: FIG. 30. Effects of oral SAMe and MTA on colonic mRNA levels of MAT2A, MAT2 β, and cFLIPL. Mice were fed SAMe (150 to 450 mg/kg/d) or MTA (75 or 150 mg/kg/d) in drinking water for 6 days. Colonic mucosa was scrapped off and gene expression measured by real-time PCR.
as §2
Total RNA was isolated by the EZgeno total RNA isolation kit (Genemega, San Giego, Calif.), and subjected to reverse transcription (RT) by using M-MLV Reverse transcriptase (Invitrogen). 2 μl of RT product was subjected to quantitative real-time PCR analysis. The primers and TaqMan probes for MAT2A, MAT2β and Universal PCR Master Mix were purchased from ABI (Foster City, Calif.). Hypoxanthine phosphoribosyl-transferase 1 (HPRT1) and ubiquitin C (UBC) were used as housekeeping genes (48). The thermal profile consisted of 1 cycle at 95° C. for 15 minutes followed by 40 cycles at 95° C. for 15 seconds and at 60° C. for 1 minute. The expression of MAT2A and MAT2β was checked by normalizing the Ct of MAT2A and MAT2β to that of the control housekeeping gene (HPRT1 or UBC) (49). The delta Ct obtained was used to find the relative expression of MAT genes according to the formula: Relative expression=2·^ΔCt, where ΔCt=ΔCt of MAT genes in colon cancer or treated cells—ΔCt of MAT genes in normal colon or control cells.

MAT2β = experiment: Colonic MAT2β mRNA in mice fed SAMe or MTA; format: in vivo; details: 150 mg/kg/d SAMe, 6 days
Method: FIG. 30. Effects of oral SAMe and MTA on colonic mRNA levels of MAT2A, MAT2 β, and […]. Mice were fed SAMe (150 to 450 mg/kg/d) or MTA (75 or 150 mg/kg/d) in drinking water for 6 days. Colonic mucosa was scrapped off and gene expression measured by real-time PCR.

[5] = 75 mg/kg/d in drinking water, six days
[6] = 150 mg/kg/d in drinking water, six days

## C[S+](CC[C@H](N)C(=O)O)C[C@H]1O[C@@H](n2cnc3c(N)ncnc32)[C@H](O)[C@@H]1O (stereo partly shown) [SAMe, S-adenosylmethionine]
Human MAT2A promoter
  human MAT2A promoter activity: lower the promoter activity
RKO cells
  apoptosis: induced apoptosis in a dose-dependent manner
SPD syn; SAMe 2 mM
  SPD syn expression: 1.1 ± 0.02 fold of control
SPD syn; SAMe 5 mM
  SPD syn expression: 0.8 ± 0.02 fold of control
[1]; SAMe 2 mM
  SPM syn expression: 1.1 ± 0.02 fold of control
[1]; SAMe 5 mM
  SPM syn expression: 1.0 ± 0.01 fold of control
c-FLIP [2]
  c-FLIP mRNA level: 70±2 % of control
c-FLIP [3]
  c-FLIP expression: lowered c-FLIP expression
Bcl-xL
  Bcl-xL mRNA level: did not have an effect
Bcl-xS
  Bcl-xS mRNA level: no effect on Bcl-xS mRNA level
[4]
  SAMe level in proximal small intestine: 800 % of control
  increase in SAMe level in colonic mucosa: ~200%
MAT2A; [5]
  MAT2A expression, colon: 128 ± 20 % of control MAT2A mRNA levels
  MAT2A expression, proximal small intestine: 99 ± 2 % of control MAT2A mRNA levels
MAT2A; [6]
  MAT2A expression, colon: 85 ± 10 % of control MAT2A mRNA levels
  MAT2A expression, proximal small intestine: 81 ± 4 % of control MAT2A mRNA levels
MAT2A; SAMe 150 mg/kg/d, MTA 75 mg/kg/d, six days
  decrease of MAT2A expression in proximal small intestine: 20%
MAT2A; SAMe 450 mg/kg/d (highest dose), 6 days
  inhibition in colonic MAT2A mRNA level: 75%
MAT2β
  inhibition of MAT2β expression: 50%
